Test results reported in patent US11254663B2 (BRISTOL-MYERS SQUIBB COMPANY, priority 2019, dated 2022).

Molecular target: FXR (Homo sapiens (Human), UniProt Q96RI1)
Experiment: FXR EC50 (FXR agonist potency reported with each Example)
Format: cell-based

Sequence of FXR (Q96RI1 262-486): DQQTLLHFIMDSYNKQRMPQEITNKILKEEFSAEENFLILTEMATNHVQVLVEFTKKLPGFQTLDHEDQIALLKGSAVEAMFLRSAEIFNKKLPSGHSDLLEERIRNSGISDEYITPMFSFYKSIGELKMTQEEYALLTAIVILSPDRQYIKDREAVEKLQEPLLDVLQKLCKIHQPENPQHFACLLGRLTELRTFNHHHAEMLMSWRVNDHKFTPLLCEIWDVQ

Work on `O=C(N(CC12CCC(c3nc(C4CC4)no3)(CC1)CC2)c1cccc(-c2cnn(C3COC3)c2)c1)C12CC(F)(C1)C2` [Example 150, N-((4-(3-cyclopropyl-1,2,4-oxadiazol-5-yl)bicyclo[2.2.2]octan-1-yl)methyl)-3-fluoro-N-(3-(1-(oxetan-3-yl)-1H-pyrazol-4-yl)phenyl)bicyclo[1.1.1]pentane-1-carboxamide] yielded an EC50 of 87 nM.

In the case of `Cn1nc(-c2cccc(N(CC34CCC(c5noc(C(C)(C)C)n5)(CC3)CC4)C(=O)C34CC(F)(C3)C4)c2)cc1C(C)(C)C` [Example 214, N-((4-(5-(tert-butyl)-1,2,4-oxadiazol-3-yl)bicyclo[2.2.2]octan-1-yl)methyl)-N-(3-(5-(tert-butyl)-1-methyl-1H-pyrazol-3-yl)phenyl)-3-fluorobicyclo[1.1.1]pentane-1-carboxamide], the EC50 is reported as 89 nM.

In the case of `COC(C)(C)c1coc(-c2cccc(N(CC34CCC(c5nc(C6CC6)no5)(CC3)CC4)C(=O)C34CC(F)(C3)C4)c2)n1` [Example 79, N-((4-(3-cyclopropyl-1,2,4-oxadiazol-5-yl)bicyclo[2.2.2]octan-1-yl)methyl)-3-fluoro-N-(3-(4-(2-methoxypropan-2-yl)oxazol-2-yl)phenyl)bicyclo[1.1.1]pentane-1-carboxamide], the EC50 is reported as 194 nM.

`CC(C)(C)c1nc(C23CCC(CN(C(=O)C45CC(F)(C4)C5)c4cc(-c5cnn(C(F)F)c5)ccn4)(CC2)CC3)no1` [Example 212, N-((4-(5-(tert-butyl)-1,2,4-oxadiazol-3-yl)bicyclo[2.2.2]octan-1-yl)methyl)-N-(4-(1-(difluoromethyl)-1H-pyrazol-4-yl)pyridin-2-yl)-3-fluorobicyclo[1.1.1]pentane-1-carboxamide] gave an EC50 of 11 nM.

In the case of `O=C(N(CC12CCC(c3noc(C45CC(F)(C4)C5)n3)(CC1)CC2)c1cccc(-c2nc(C3CC3)no2)c1)C12CC(F)(C1)C2` [Example 114, N-(3-(3-cyclopropyl-1,2,4-oxadiazol-5-yl)phenyl)-3-fluoro-N-((4-(5-(3-fluorobicyclo[1.1.1]pentan-1-yl)-1,2,4-oxadiazol-3-yl)bicyclo[2.2.2]octan-1-yl)methyl)bicyclo[1.1.1]pentane-1-carboxamide], the EC50 is reported as 177 nM.

`Cn1nc(-c2cccc(N(CC34CCC(c5nc(C6CC6)no5)(CC3)CC4)C(=O)C3CCC(F)(F)C3)c2)cc1C1CC1` (centres unmarked) [Example 77, N-((4-(3-cyclopropyl-1,2,4-oxadiazol-5-yl)bicyclo[2.2.2]octan-1-yl)methyl)-N-(3-(5-cyclopropyl-1-methyl-1H-pyrazol-3-yl)phenyl)-3,3-difluorocyclopentane-1-carboxamide] was tested, and the EC50 was 429 nM.

`CC(N(C(=O)C12CC(F)(C1)C2)c1cccc(-c2nc(C3CC3)no2)c1)C12CCC(c3nc(C4CC4)no3)(CC1)CC2` (single isomer, unassigned) [Example 218, N-(1-(4-(3-cyclopropyl-1,2,4-oxadiazol-5-yl)bicyclo[2.2.2]octan-1-yl)ethyl)-N-(3-(3-cyclopropyl-1,2,4-oxadiazol-5-yl)phenyl)-3-fluorobicyclo[1.1.1]pentane-1-carboxamide] gave an EC50 of 1120 nM.

`Cn1nc(C2CC2)cc1C12CCC(CN(C(=O)C34CC(F)(C3)C4)c3cccc(-c4noc(C5(C)CC5)n4)c3)(CC1)CC2` [Example 166, N-((4-(3-cyclopropyl-1-methyl-1H-pyrazol-5-yl)bicyclo[2.2.2]octan-1-yl)methyl)-3-fluoro-N-(3-(5-(1-methylcyclopropyl)-1,2,4-oxadiazol-3-yl)phenyl)bicyclo[1.1.1]pentane-1-carboxamide] was tested, and the EC50 was 82 nM.

In the case of `O=C(N(CC12CCC(c3nc(C4CCOCC4)no3)(CC1)CC2)c1cccc(-c2nc(C3CC3)no2)c1)C12CC(F)(C1)C2` [Example 90, N-(3-(3-cyclopropyl-1,2,4-oxadiazol-5-yl)phenyl)-3-fluoro-N-((4-(3-(tetrahydro-2H-pyran-4-yl)-1,2,4-oxadiazol-5-yl)bicyclo[2.2.2]octan-1-yl)methyl)bicyclo[1.1.1]pentane-1-carboxamide], the EC50 is reported as 121 nM.

`O=C(C1CC(C(F)F)C1)N(CC12CCC(c3nc(C4CC4)no3)(CC1)CC2)c1cccc(-c2nc(C(F)F)co2)c1` (centres unmarked) [Example 43, N-((4-(3-cyclopropyl-1,2,4-oxadiazol-5-yl)bicyclo[2.2.2]octan-1-yl)methyl)-3-(difluoromethyl)-N-(3-(4-(difluoromethyl)oxazol-2-yl)phenyl)cyclobutane-1-carboxamide] gave an EC50 of 851 nM.

In the case of `O=C(N(CC12CCC(c3nc(C4CC4)no3)(CC1)CC2)c1cccc(-c2noc(C(F)F)n2)c1)C12CC(F)(C1)C2` [Example 105, N-((4-(3-cyclopropyl-1,2,4-oxadiazol-5-yl)bicyclo[2.2.2]octan-1-yl)methyl)-N-(3-(5-(difluoromethyl)-1,2,4-oxadiazol-3-yl)phenyl)-3-fluorobicyclo[1.1.1]pentane-1-carboxamide], the EC50 is reported as 57 nM.

With `O=C(C1CC(O)(C(F)(F)F)C1)N(CC12CCC(c3nc(C4CC4)no3)(CC1)CC2)c1cccc(-c2cnc(C3CC3)o2)c1` [Example 21, (1S,3S)—N-((4-(3-cyclopropyl-1,2,4-oxadiazol-5-yl)bicyclo[2.2.2]octan-1-yl)methyl)-N-(3-(2-cyclopropyloxazol-5-yl)phenyl)-3-hydroxy-3-(trifluoromethyl)cyclobutane-1-carboxamide] the EC50 was 80 nM.

`COc1ncc(C23CCC(CN(C(=O)C45CC(F)(C4)C5)c4cccc(-c5nc(C6CC6)no5)c4)(CC2)CO3)cn1` [Example 140, N-(3-(3-Cyclopropyl-1,2,4-oxadiazol-5-yl)phenyl)-3-fluoro-N-((1-(2-methoxypyrimidin-5-yl)-2-oxabicyclo[2.2.2]octan-4-yl)methyl)bicyclo[1.1.1]pentane-1-carboxamide] gave an EC50 of 582 nM.

Molecule `O=C(C1CCC(F)(F)C1)N(CC12CCC(c3nnc(C4CC4)o3)(CC1)CC2)c1cccc(-c2nnc(C3CC3)o2)c1` (racemic) [Example 133, N-((4-(5-cyclopropyl-1,3,4-oxadiazol-2-yl)bicyclo[2.2.2]octan-1-yl)methyl)-N-(3-(5-cyclopropyl-1,3,4-oxadiazol-2-yl)phenyl)-3,3-difluorocyclopentane-1-carboxamide] has an EC50 of 293 nM.

In the case of `CCOC(=O)c1nc(-c2cccc(N(CC34CCC(c5nc(C6CC6)no5)(CC3)CC4)C(=O)C34CC(F)(C3)C4)c2)cs1` [Example 29, Ethyl 4-(3-(N-((4-(3-cyclopropyl-1,2,4-oxadiazol-5-yl)bicyclo[2.2.2]octan-1-yl)methyl)-3-fluorobicyclo[1.1.1]pentane-1-carboxamido)phenyl)thiazole-2-carboxylate], the EC50 is reported as 1090 nM.

Molecule `CC1(c2nc(-c3cccc(N(CC45CCC(c6ccc(C(F)(F)F)cn6)(CC4)CC5)C(=O)C45CC(F)(C4)C5)c3)no2)CC1` [Example 186, 3-fluoro-N-(3-(5-(1-methylcyclopropyl)-1,2,4-oxadiazol-3-yl)phenyl)-N-((4-(5-(trifluoromethyl)pyridin-2-yl)bicyclo[2.2.2]octan-1-yl)methyl)bicyclo[1.1.1]pentane-1-carboxamide] has an EC50 of 625 nM.

`CC(C)c1nc(-c2cccc(N(CC34CCC(c5cc(C6CC6)n(C)n5)(CC3)CC4)C(=O)C34CC(F)(C3)C4)c2)no1` [Example 169, N-((4-(5-cyclopropyl-1-methyl-1H-pyrazol-3-yl)bicyclo[2.2.2]octan-1-yl)methyl)-3-fluoro-N-(3-(5-isopropyl-1,2,4-oxadiazol-3-yl)phenyl)bicyclo[1.1.1]pentane-1-carboxamide] was tested, and the EC50 was 98 nM.
